Tests used:
HCT116 cells [1] = assay: Endocytosis mechanisms for uptake of DiI/Lip-RFKH; type: cell-based, human; conditions: 3 h-incubation, endocytosis inhibitor added
[2] = Biodistribution of irinotecan in SAS-luc-bearing nude mice; type: in vivo; conditions: UV spectrophotometer
Protocol: The biodistribution of irinotecan of different formulations in SAS-bearing mice was analyzed with UV spectrophotometer. (*statistical significance at P<0.05; **statistical significance at P<0.01; ***statistical significance at P<0.001).

[3] = Biodistribution of irinotecan in CT26/tk-luc-bearing mice; type: in vivo; conditions: UV spectrophotometer
Protocol: The biodistribution of irinotecan of different formulations in CT26-bearing mice was analyzed by UV spectrophotometer (*statistical significance at P<0.05; **statistical significance at P<0.01; ***statistical significance at P<0.001).

IEC-6 cells = assay: Cell viability, sulforhodamine B assay, IEC-6; type: cell-based, rat; conditions: noncancerous IEC-6 cells, 48 h, SRB
[4] = Biochemical tests, H&E staining and TUNEL assay in CT26 tumor-bearing mice; type: in vivo; conditions: 48 h after last treatment
Protocol: Tumor-bearing mice were treated as described above. Blood samples (170 μl) were taken from the orbital sinus of mice 48 h after the final treatment. After harvesting and centrifugation for 15 min, liver, kidney and heart functions were assessed by detecting the serum levels of glutamate pyruvate transaminase (GPT), creatinine (CRE), and creatine kinase-MB (CK-MB) using corresponding activity assay kits (Fujifilm, Tokyo, Japan) and a clinical dry chemistry analyzer (Fuji Dri-Chem 7000V, Fujifilm Corp.). Additionally, the tumors and intestines were fixed in 4% paraformaldehyde overnight, embedded in paraffin, and cut into 5-μm-thick sections for H&E staining, and the histology of these samples was examined using an Olympus microscope.
TUNEL assay was performed to assess in vivo apoptosis in CT26 tumor-bearing mice at 48 h after last treatment of different formulations.^[42] In brief, the samples were frozen and fixed in 4% paraformaldehyde for 20 min. After washing with PBS for 10 min, the samples were immersed on ice for 2 min. After mixing with reaction dispersion (50 μL) according to the manufacture's manual (In Situ Cell Death Detection Kit, Roche, Germany), the section samples were stained with Hoechst in the nuclei for comparison and monitored using CLSM.

CT26 tumor = assay: In vivo antitumor efficacy, IVIS and PET/CT imaging, body weight in CT26-bearing mice; conditions: 28 days
Protocol: Male BALB/c mice at the age of 6 weeks with body weights of 20±2 g were purchased from National Laboratory Animal Center (Taipei, Taiwan) and maintained in an individual ventilation cage system. The animals were ensured free access to sterilized food and water. CT-26 (10^5 cells in 0.1 ml PBS) were injected subcutaneously into the right flank of mice to obtain tumor-bearing BALB/c mice. All processes performed on the animals were in accordance with the National Institutes of Health Guide for the Care and Use of Laboratory Animals and were approved by the National Yang-Ming University Animal Committee.
CT-26 cells (10^5 cells in 0.1 ml PBS) were injected subcutaneously into the right flank of mice to obtain tumor-bearing BALB/c mice. When tumor volume reached approximately 100 mm^3 (equation 4), the mice were randomly assigned to six groups (n=5 for each group). […] Mice were injected intravenously (IV) with Iri at 100 mg/kg and miR-200 at 1.25 mg/kg in different formulations every 7 days for 28 days. Fluorescence images were visualized one day after the final treatment using an IVIS […] (Caliper). […]
Tumor images were monitored using PET/CT. […]
Animal body weight and tumor size were detected every 3 or 4 days for 28 days. Tumor size was measured with a digital caliper and the tumor volume (V) was calculated (equation 4).

[5] = pH-sensitive release (dialysis against PBS); type: physicochemical; conditions: both pH 7.4 and pH 6.5, 37° C.
Protocol: Irinotecan- or miR-loaded formulations were placed in a dialysis bag (1,000-3,500 MWCO) and dialyzed separately against PBS at pH 7.4 and 6.5. At the indicated time, solution was withdrawn from the incubation medium. The irinotecan concentrations were determined by HPLC to calculate the cumulative drug release %.

HCT116 cells [6] = assay: Cell viability, sulforhodamine B assay, HCT116; type: cell-based, human; conditions: 48 h, SRB
Protocol: The cytotoxicity of formulations in rat small intestinal epithelial IEC-6 cells and human colorectal cancer HCT116 cells was determined using a sulforhodamine B (SRB) assay. After 48-h incubation with various formulations, the cells were stained with SRB for 10 min. The absorbance at 540 nm was detected with a microplate TECAN reader.

| Compound | relative fluorescence intensity % of DiI/Lip-RFKH (HCT116 cells [1]) | biodistribution of irinotecan [2] | biodistribution of irinotecan [3] | cytotoxicity to IEC-6 cells (IEC-6 cells) | serum CKMB level [4] | serum CRE level [4] | serum GPT level [4] | body weight (CT26 tumor) | release within 24 h [5] | cytotoxicity / viability of HCT116 cells (HCT116 cells [6]; HCT116 cells) | cytotoxicity in HCT116 cells (HCT116 cells [6]; irinotecan at 4×10^−6 M) | hemolysis (rat blood cells) |
| --- | --- | --- | --- | --- | --- | --- | --- | --- | --- | --- | --- | --- |
| CN(C)CCCN1c2ccccc2Sc2ccc(Cl)cc21 [chlorpromazine] | significant decreases | – | – | – | – | – | – | – | – | – | – | – |
| poly-L-lysine | significant decreases | – | – | – | – | – | – | – | – | – | – | – |
| CCc1c2c(nc3ccc(OC(=O)N4CCC(N5CCCCC5)CC4)cc13)-c1cc3c(c(=O)n1C2)COC(=O)[C@]3(O)CC [irinotecan] | – | majorly in the liver, kidney, and intestines | mainly in the liver, kidney, and intestines | ≈ 30% | provoked | provoked | provoked | continuous decrease | 100% | concentration-dependent inhibition | ≈ 20% | ≈ 10% |

— patent publication US11141491B2, “PH-sensitive lipid nanoparticles for encapsulation of anticancer drugs and microRNA and use thereof” (National Yang-Ming University, priority 2018, dated 2021)
